This is an account of results in patent US20260373036A1, “A PERSONAL CARE COMPOSITION” (Concpco, Inc., d/b/a UNILEVER, priority 2022, published 2026).

For this series, the system named is TXNRD1 (Thioredoxin reductase 1) gene. In words: TXNRD1 (thioredoxin reductase 1) gene expression in normal human epidermal keratinocytes (NHEK) by RT-PCR. As to conditions: 24 hours, normalized to YWHAZ, relative to blank control (1.0). Type of series: cell-based. As for the experimental part: The normal human epidermal keratinocytes (NHEK, Lot: NHS-2021-006) (Archgene Biotechnology, Shanghai, China) were incubated in medium together with or without actives for 24 hours. After incubation, the total RNA for each NHEK was extracted using Qiagen Mini RNeasy kit (Qiagen, Cat. 74106) according to manufacturer's protocol.
The extracted RNA was quantified using Nanodrop 2000 spectrometer (Thermo Fisher Scientific, Waltham, MA, US) and reverse transcribed to generate the template cDNA using the ABScript III RT Mast Mix (Cat. BK20428, ABclonal) according to manufacturer's protocol. Amplification of the gene encoding the TXNRD1 (Thioredoxin reductase 1) gene was performed with RT-PCR reagent (Universal SYBR Green Fast qPCR Mix kit, Cat.: RK21203, ABclonal) on the ABI Vii 7 Real-Time PCR Systems (Applied Biosystems, Thermo fisher scientific, Carlsbad, CA, USA). The Tyrosine 3-Monooxygenase/Tryptophan 5-Monooxygenase Activation Protein Zeta gene (YWHAZ) was selected as the housekeeping gene and all data on relative expression of the target genes was normalized to YWHAZ.

As for `CCCCCCc1ccc(O)cc1O` [HR, 4-hexyl resorcinol], the fold induction at 5 µM (Homo sapiens, 5 μM of HR in medium, read-out: Fold change for gene expression TXNRD1) turned out to be 1.

With Lysine carboxymethyl cysteinate [LCC], for the setting “0.05 wt % of LCC in medium”, the “Fold change for gene expression TXNRD1” value is 1.2.
